The results in this text go back to patent US6638912B2, “Peptide compositions mimicking TGF-β activity” (The Regents of the University of California, priority 1995, dated 2003).

Entries after “also recorded” stand apart in the source; their conditions may differ. Square brackets hold non-standard residues; d marks the D form. Ends that are not written are not given here. NMeA = CN[C@@H](C)C(=O)O; Abu = CC[C@H](N)C(=O)O; Aib = CC(C)(N)C(=O)O

Common to all, as to type: cell-based
In assay [1] the test system is Mv-1-Lu mink lung epithelial cells. Kind of assay: Inhibition of DNA synthesis (3H-thymidine incorporation) and proliferation of Mv-1-Lu cells. As to conditions: for % Inhibition of incorporation of 3H-thymidine / 3H-Radioactivity: MV-1 Lu cells; for 3H-Radioactivity: control without peptide 3.57; for Inhibition in comparison to cytomodulin (Inhib by new peptide/Inhib by cytomodulin): 3H-thymidine incorporation, MV-1-Lu cells; for Inhibition of DNA synthesis / proliferation of Mv-1-Lu cells (in words): 10−9 to 10−6 M range; for Bioactivity as agonist (tested as for DNA inhibition): Example 7. On the procedure: The effect of TGF-β and cytomodulin were evaluated by determining the rate of […]thyidine incorporation into total acid-insoluble DNA and cell number. See generally, Sampath et al., Journal of Biological Chemistry, 267, pp. 20352-20362 (1992). DNA synthesis rates were determined in triplicate cultures after 24 hour treatment with various concentrations (10−9 M to 10^−6M) of either TGF-β or cytomodulin (which was synthesized by the Merrifield method) by adding [methyl-^3H]thymidine (2 μCi/ml, 80 Ci/mmol) for 6 hours before the termination of the culture. Incorporation was terminated by aspiration of the medium, and after washing three times with phosphate-buffered saline, the trichloroacetic acid (10%)-precipitated radioactive DNA was extracted with 1.0% (w/v) sodium dodecyl sulfate, 0.1 M NaOH and quantitated by liquid scintillation counting. For cell number determination, 1×10^5 cells were plated in flasks in MEM containing 10% FBS, and after 24 hours, the growth medium was replaced with serum-free medium containing various conceptions of TGF-β and cytomodulin. Triplicate cultures were harvested every 24 hours for the duration of 7 days, and the cell number was determined by counting cells released by trypsin digestion in a fixed volume hemacytometer.
The numbers shown at the various concentration are the ratio of the inhibition rate of the peptide being tested over the inhibition rate of cytomodulin (SEQ ID NO: 1) at the same concentration.
Tests for bioactivity were conducted as described above for DNA inhibition.

Assay [2] has as its system NRK-49 F normal rat kidney fibroblasts. Nature of the assay: Growth and colony formation by NRK-49 F fibroblasts in soft agar. Conditions: for Colony formation in soft agar: 100 nM. The method, then: The original assay for TGF-β, the ability to promote anchorage independent growth of normal fibroblasts is still one of the hallmarks of TGF-β activity. NRK-49 F fibroblasts were grown at 37° C. in DEM supplemented with 10% fetal calf serum. […] To this, either 100 nM TGF-β (positive control) or 100 nM cytomodulin was added. NRK49 F fibroblasts (5×10^4 cells/ml) were mixed with 0.3% agar were plated on the bottom of 35 mm culture dishes. Colony formation was observed starting on day 3 of culture.

The test system of assay [3] is human osteogenic sarcoma (HOS) cell line. Kind of assay: Gene expression in HOS cells (Northern analysis). On the procedure: (§1) Total cellular RNA was isolated using essentially the method described by Maniatis. Sambrook et al., Molecular Cloning: A Laboratory Marual, Cold Spring Harbor Laboratory Press, Second Edition (1989). Cells were lysed with 0.5% SDS and 0.1 potassium acetate. The lysate was extracted with phenol and centrifuiged at 5000 rpm for 15 minutes. The aqueous phase was precipitated with 2 volumes ethanol in 0.1 M Tris, pH 8.0 and 0.2 M NaCl. The pellet was resuspended and quantitated by measuring the ultraviolet absorbance at 260 nm. RNA purity was assessed by comparing the ultraviolet absorbance at 260 inm with that at 280 nm.
(§2) RNA (10 μg/lane) was electrophoresed at 3 to 4 v/cm through a 0.7% agarose, 2.2 M formaldehyde denaturing gel. RNA was transferred by capillary transfer to nylon membranes. RNA integrity, gel loading, and transfer efficiency were assessed by methylene blue stained 28S and 18 S bands. The filters were baked at 80° C. for 2 hours to immobilize the RNA. After baking, the filters were hybridized at 65° C. in 0.5 M NaPO4 buffer, pH 7.0, containing 1 mM EDTA, 7% sodium dodecyl sulfate, and 1% bovine serum albumin. cDNA probes were labeled with DDIG […] by the random primer method, using Klenow enzyme. Hybridization for 18 hours at 65° C. followed by washing, was performed.
(§3) Data were analyzed by scanning digoxigenin-dVTP according to manufacturer's procedure (Boehringer Mannheim Biochemica, DIG DNA labelling kit, Cat. No. 1175033).

A further assay deals with TGF-β activity. Nature of the assay: TGF-β like activity, overall statement, test not specified.
The next assay has as its system human dermal fibroblasts. Kind of assay: Gene expression in human dermal fibroblasts (Northern analysis). The method, then:
as §1, §2, §3

The mark [4] stands for this setting: 1 mM peptide (so in the source).

For the substance “L-(Aib)-A-E-A-K (L[Aib]AEAK) [SEQ ID NO:4]”, the “% Inhibition of incorporation of 3H-thymidine” value (“% Inhibition” below) in assay [1] (5 nM peptide) was 35%; in assay [1] (50 nM peptide), 46%; in assay [1] (100 nM peptide) it was 60%; in assay [1] (500 nM peptide), 55%; in assay [1] (setting [4]), 27%. Moreover, the 3H-Radioactivity in assay [1] (5 nM peptide) is given as 2.31 10^3 dpm; in assay [1] (50 nM peptide), 1.94 10^3 dpm; in assay [1] (100 nM peptide) it was 1.44 10^3 dpm; in assay [1] (500 nM peptide) it was 1.61 10^3 dpm; in assay [1] (setting [4]), 2.60 10^3 dpm.
Consider “L-I-A-G-E-G (LIAGEG; TGF-beta mimic) [SEQ ID NO:14]”, for which the “Inhibition in comparison to cytomodulin (Inhib by new peptide/Inhib by cytomodulin)” value in assay [1] (1 nM) was determined as 0.66; in assay [1] (10 nM), 0.85; in assay [1] (100 nM), 1.41; in assay [1] (1000 nM) it was 1.88.
Regarding “L-I-A-G-G-E (LIAGGE; TGF-beta mimic) [SEQ ID NO:13]”, the “Inhibition in comparison to cytomodulin (Inhib by new peptide/Inhib by cytomodulin)” value in assay [1] (1 nM) was found to be 1.10; in assay [1] (10 nM) it was 1.33; in assay [1] (100 nM) it was 1.45; in assay [1] (1000 nM) it was 1.90. Also, the “Inhibition of DNA synthesis / proliferation of Mv-1-Lu cells (in words)” value in assay [1] is on record as “inhibits thymidine uptake more than SEQ ID NO: 14”.
Consider “L-I-A-P-E-A (LIAPEA; TGF-beta mimic) [L1]”, for which the “Inhibition of DNA synthesis / proliferation of Mv-1-Lu cells (in words)” value in assay [1] is recorded as “inhibited the proliferation”. Also, the “Growth and colony formation of NRK-49F cells in soft agar (in words)” value in assay [2] is listed as “promoted the growth”. For the same substance, in assay [3], the “Expression of TGF-β” value is reported as “increased the expression”, the “Expression of alkaline phosphatase” value is given as “increased the expression” and the “Expression of type I collagen” value was “increased the expression”. Further, the TGF-β like activity result with TGF-β activity is given as “at least as much TGF-β like activity as cytomodulin”. In the assay on human dermal fibroblasts, the “Expression of TGF-β” value is on record as “increased the expression”, the Expression of collagenase entry is recorded as “decreased the expression” and the “Expression of type I collagen” value is listed as “increased the expression”.
“L-I-(Aib)-E-A-K (LI[Aib]EAK) [SEQ ID NO:22]”: in assay [1], the “Bioactivity as agonist (tested as for DNA inhibition)” value is given as “active as an agonist”.
Consider “E-G-I-A-G-K (EGIAGK; TGF-beta mimic) [SEQ ID NO:8]”, for which the TGF-β like activity result in the assay on TGF-β activity was “did not display significant TGF-β activity”.
In the case of “L-I-A-K-G-K (LIAKGK; TGF-beta mimic) [SEQ ID NO:16]”, the “Inhibition in comparison to cytomodulin (Inhib by new peptide/Inhib by cytomodulin)” value in assay [1] (10 nM) is reported as 0.65; in assay [1] (100 nM), 0.67.
In the case of “L-I-(Nme-A)-E-A-K (LI[NMeA]EAK) [SEQ ID NO:5]”, the “% Inhibition” value in assay [1] (1 nM peptide) was 47%; in assay [1] (5 nM peptide), 42%; in assay [1] (50 nM peptide) it was 41%; in assay [1] (100 nM peptide) it was 40%; in assay [1] (500 nM peptide), 53%. Moreover, the 3H-Radioactivity in assay [1] (1 nM peptide) is 1.61 10^3 dpm; in assay [1] (5 nM peptide), 1.76 10^3 dpm; in assay [1] (50 nM peptide) it was 1.60 10^3 dpm; in assay [1] (100 nM peptide) it was 1.81 10^3 dpm; in assay [1] (500 nM peptide), 1.42 10^3 dpm.
With “L-I-(D-Ala)-E-A-K (LI[dA]EAK) [SEQ ID NO:39]”, in assay [1], the “Bioactivity as agonist (tested as for DNA inhibition)” value was “active as an agonist”.
Regarding “L-I-A-D-A-K (LIADAK; TGF-beta mimic) [SEQ ID NO:9]”, the “Inhibition in comparison to cytomodulin (Inhib by new peptide/Inhib by cytomodulin)” value in assay [1] (1 nM) stood at 0.45; in assay [1] (10 nM), 0.87; in assay [1] (100 nM), 1.14; in assay [1] (1000 nM), 1.25.
Take “A-N-V-A-E-K (ANVAEK; TGF-beta mimic) [SEQ ID NO:15]”: the “Inhibition in comparison to cytomodulin (Inhib by new peptide/Inhib by cytomodulin)” value in assay [1] (10 nM) was 0.80; in assay [1] (100 nM), 1.00.
Turning to “L-(Abu)-A-E-A-K (L[Abu]AEAK) [SEQ ID NO:6]”, in assay [1] (1 nM peptide), the “% Inhibition” value is given as 33% and the 3H-Radioactivity is on record as 2.02 10^3 dpm. For the same substance, in assay [1] (5 nM peptide), the “% Inhibition” value was determined as 35% and the 3H-Radioactivity is 1.97 10^3 dpm.
As to “G-G-Q-I-A-N-I (GGQIANI; TGF-beta mimic) [SEQ ID NO:7]”, in the assay with TGF-β activity, the TGF-β like activity result is recorded as “did not display significant TGF-β activity”.
Regarding “L-I-A-N-A-K (LIANAK; TGF-beta mimic) [SEQ ID NO:10]”, the “Inhibition in comparison to cytomodulin (Inhib by new peptide/Inhib by cytomodulin)” value in assay [1] (1 nM) was found to be 1.70; in assay [1] (10 nM), 2.00; in assay [1] (100 nM) it was 1.43; in assay [1] (1000 nM), 3.05. Moreover, the “Inhibition of DNA synthesis / proliferation of Mv-1-Lu cells (in words)” value in assay [1] is reported as “even more than cytomodulin at every concentration tested”.
Regarding “L-I-A-Q-A-K (LIAQAK; TGF-beta mimic) [SEQ ID NO:12]”, the “Inhibition in comparison to cytomodulin (Inhib by new peptide/Inhib by cytomodulin)” value is 0.90 in assay [1] (1 nM), 1.10 in assay [1] (10 nM), 0.80 in assay [1] (100 nM) and 1.56 in assay [1] (1000 nM).
With “A-N-V-A-E-N-A (ANVAENA; TGF-beta mimic) [cytomodulin]”, the “Inhibition of DNA synthesis / proliferation of Mv-1-Lu cells (in words)” value in assay [1] was “inhibition of DNA synthesis; also recorded: at least as much as TGF-β”. Besides, the “Colony formation in soft agar” value in assay [2] (with EGF and PDGF) is recorded as “formed colonies to approximately the same extent as the TGF-β cultures; also recorded: much larger colonies”. In addition, the “Colony formation in soft agar” value in assay [2] (without EGF and PDGF) was “did induce colony formation; also recorded: formation of small colonies”. For the same substance, in assay [3], the “Expression of TGF-β” value is recorded as “increased the expression”, the “Expression of alkaline phosphatase” value is listed as “stimulate; also recorded: increased the expression”, the Expression of osteonectin result was “stimulate” and the “Expression of type I collagen” value is “increased the expression”. The “Expression of type I collagen” value in the assay on human dermal fibroblasts was “induction of increased expression”.
With “L-I-A-E-A-A (LIAEAA; TGF-beta mimic) [SEQ ID NO:11]”, the “Inhibition in comparison to cytomodulin (Inhib by new peptide/Inhib by cytomodulin)” value in assay [1] (1 nM) is recorded as 1.16; in assay [1] (10 nM), 1.00; in assay [1] (100 nM), 1.17; in assay [1] (1000 nM), 1.85. For the same substance, the “Inhibition of DNA synthesis / proliferation of Mv-1-Lu cells (in words)” value in assay [1] was “at least as much activity as cytomodulin”.
As for “L-I-P-E-A-K (LIPEAK; TGF-beta mimic) [SEQ ID NO:21]”, in assay [1], the “Bioactivity as agonist (tested as for DNA inhibition)” value is recorded as “active as an agonist”.
